Source: patent publication US20160263081A1, “ANTIPARASITIC AGENT” (NAI INC., priority 2013, published 2016)
Several values for one entry are separate records, joined by “and”; a condition that tells them apart may be missing. Identical values can stand only once. Like-named read-outs stand apart in the source and are kept apart here.

Tests used:
pig complex II [1] = biological target: T1, pig complex II (Sus scrofa, UniProt A5GZW8+D0VWV4+Q007T0); settings: Non-Patent Document 21; cited from earlier work
[2] = tested on: Trychophyton spp., Epidermophyton floccosum, and Microsporium gypseum; settings: cited from earlier work
[3] = tested on: T. b. brucei bloodstream form; experiment: Proliferation by Alamar Blue method, T. b. brucei bloodstream form; assay type: cell-based; settings: Trypanosoma brucei, read-out: Celluler IC50
From the text: (§1) Siccanin inhibits trypanosomatid and plasmodia complex II with IC50 values on the nM order. Based on this fact, the present inventors further measured the impact of siccanin on the proliferation of parasites (Table 3). The species of the organisms used in the present study were: nonpathogenic leishmanial protozoan L. tarentolae promastigote (insect form), cutaneous leishmaniasis pathogen L. major promastigote (insect form), visceral leishmaniasis pathogen L. donovani promastigote (insect form), related species of African sleeping sickness pathogen T. b. brucei bloodstream form, Chagas disease pathogen T. cruzi amastigote (cell form), and plasmodia P. falciparum erythrocytic stage (Table 3). T. b. brucei bloodstream form and T. cruzi amastigote correspond to the stages found in mammalian hosts and can be used as target forms in drug treatments for African trypanosomiasis and Chagas disease.
(§2) In the presence of 0.05 to 50 μM siccanin, the proliferation of L. tarentolae promastigote, L. donovani promastigote, L. major promastigote, and T. brucei bloodstream form was measured by Alamar Blue method. […] The growth inhibitory effect of siccanin on T. cruzi was evaluated by counting the T. cruzi amastigote population that infected mouse cells. As compared with DMSO control, the number of the protozoa decreased by 50% in the presence of 10 μM siccanin. […]

D. immitis microfilariae = assay type: cell-based, Dirofilaria immitis
[4] = biological target: Escherichia coli complex II (Escherichia coli, UniProt P07014+P0AC44+P69054); settings: cited from earlier work
[5] = tested on: T. mentagrophytes mitochondria; settings: cited from earlier work
T. b. brucei complex II = assay type: biochemical, Trypanosoma brucei brucei
[6] = tested on: L. tarentolae complex II SDH activity; experiment: Succinate dehydrogenase (SDH) reaction with PMS and MTT, L. tarentolae complex II; assay type: biochemical, Leishmania tarentolae; settings: 50 μM siccanin
Protocol: (§3) In order to estimate the inhibitory mechanism of siccanin against complex II, the inhibitory pattern was determined by Lineweaver-Burk plot using succinate and quinone as the substrates. As samples for measurement, nematode complex II from A. suum and complex II from L. tarentolae, which is an easy-to-handle trypanosomatid, were used. […] The SDH activity is catalyzed by only subunits Fp and Ip of complex II and the quinone-binding domain is not essential for the reaction.

P. falciparum complex II = assay type: biochemical, Plasmodium falciparum
[7] = biological target: T2, A. suum complex II SDH activity (Ascaris suum, UniProt O44074+P92506+P92507); experiment: Succinate dehydrogenase (SDH) reaction with PMS and MTT, A. suum complex II; assay type: biochemical; settings: 50 μM siccanin
T2 construct: measured using A. suum imago complex II; from tissue; host or cells: adult (imago) Ascaris suum
Protocol: as §3

[8] = tested on: T. mentagrophytes respiratory chain complex II; settings: cited from earlier work
L. major promastigote [9] = experiment: Proliferation by Alamar Blue method, L. major promastigote; assay type: cell-based; settings: Leishmania major, read-out: Celluler IC50
From the text: as §1, §2

[10] = tested on: Pseudomonas aeruginosa complex II; settings: cited from earlier work
T. cruzi amastigote [11] = experiment: Count of T. cruzi amastigotes infecting mouse cells; assay type: cell-based, Trypanosoma cruzi
From the text: as §1, §2

[12] = tested on: L. tarentolae promastigote; experiment: Proliferation by Alamar Blue method, L. tarentolae promastigote; assay type: cell-based; settings: Leishmania tarentolae, read-out: Celluler IC50
From the text: as §1, §2

pig complex II [13] = biological target: T1, pig complex II; assay type: biochemical
L. tarentolae complex II = assay type: biochemical, Leishmania tarentolae
[14] = tested on: P. falciparum erythrocytic stage; experiment: P. falciparum proliferation by LDH assay; assay type: cell-based, Plasmodium falciparum; settings: read-out: Celluler IC50
From the text: as §1, §2

L. donovani promastigote [15] = experiment: Proliferation by Alamar Blue method, L. donovani promastigote; assay type: cell-based; settings: Leishmania donovani
From the text: as §1, §2

[16] = biological target: T3, A. suum respiratory chain complex II (Ascaris suum, UniProt O44074+P92506+P92507); experiment: Lineweaver-Burk inhibition pattern, A. suum complex II; assay type: biochemical; settings: for Ki: A. suum SQR activity, for quinone (decylubiquinone)
T3 construct: measured using A. suum imago complex II; from tissue; host or cells: adult (imago) Ascaris suum
Protocol: FIG. 1 is a graph which represents the inhibition pattern of siccanin against A. suum respiratory chain complex II.
as §3

H. contortus complex II = assay type: biochemical, Haemonchus contortus
T. cruzi complex II = assay type: biochemical, Trypanosoma cruzi
T. mentagrophytes = settings: glycol salicylate ointment containing 1% siccanin applied 3-8 days after infection, albino guinea pigs, N=20; cited from earlier work
[17] = biological target: T3, A. suum respiratory chain complex II; experiment: biochemical
A. simplex complex II = A. simplex complex II (Anisakis simplex, UniProt A0A0M3JRB2+A0A0M3KB13+A0A3P6RGD8); experiment: biochemical
[18] = biological target: L. tarentolae respiratory chain complex II; experiment: Lineweaver-Burk inhibition pattern, L. tarentolae complex II; assay type: biochemical, Leishmania tarentolae; settings: for Ki: L. tarentolae SQR activity, for quinone (ubiquinone 1)
Protocol: FIG. 2 is a graph which represents the inhibition pattern of siccanin against L. tarentolae respiratory chain complex II.
as §3

rat complex II = rat complex II (Rattus norvegicus, UniProt P21913+Q641Z9+Q6PCT8); settings: cited from earlier work
D. immitis complex II = assay type: biochemical, Dirofilaria immitis
L. donovani promastigote [19] = settings: cited from earlier work
L. major promastigote [20] = settings: cited from earlier work
T. cruzi amastigote [21] = settings: cited from earlier work
Ascaris suum complex II = Ascaris suum complex II (Ascaris suum, UniProt O44074+P92506+P92507); settings: A. suum complex II; cited from earlier work
[22] = complex II alone, read-out: Ki1
[23] = complex of complex II and ubiquinone, read-out: Ki2
[24] = A. suum complex II, Lineweaver-Burk plot

T3 sequence (Q33862 19-645 partner): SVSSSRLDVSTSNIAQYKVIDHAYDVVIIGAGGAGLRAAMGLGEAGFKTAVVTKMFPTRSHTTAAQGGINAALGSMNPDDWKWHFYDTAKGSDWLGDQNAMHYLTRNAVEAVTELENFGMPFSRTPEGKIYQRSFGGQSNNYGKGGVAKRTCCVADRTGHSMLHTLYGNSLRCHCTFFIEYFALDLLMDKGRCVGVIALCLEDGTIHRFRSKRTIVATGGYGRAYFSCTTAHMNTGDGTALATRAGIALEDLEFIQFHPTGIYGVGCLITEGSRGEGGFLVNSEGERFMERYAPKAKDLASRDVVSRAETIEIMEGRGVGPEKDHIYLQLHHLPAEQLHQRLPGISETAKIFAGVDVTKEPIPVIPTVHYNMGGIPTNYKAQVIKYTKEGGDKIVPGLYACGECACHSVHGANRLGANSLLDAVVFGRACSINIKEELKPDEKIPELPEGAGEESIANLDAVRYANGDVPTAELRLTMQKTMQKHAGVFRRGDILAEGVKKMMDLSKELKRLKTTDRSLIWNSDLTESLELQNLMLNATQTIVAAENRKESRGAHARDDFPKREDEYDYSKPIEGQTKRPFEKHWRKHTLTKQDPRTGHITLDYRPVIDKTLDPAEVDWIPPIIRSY
T3 sequence (O44074 22-282): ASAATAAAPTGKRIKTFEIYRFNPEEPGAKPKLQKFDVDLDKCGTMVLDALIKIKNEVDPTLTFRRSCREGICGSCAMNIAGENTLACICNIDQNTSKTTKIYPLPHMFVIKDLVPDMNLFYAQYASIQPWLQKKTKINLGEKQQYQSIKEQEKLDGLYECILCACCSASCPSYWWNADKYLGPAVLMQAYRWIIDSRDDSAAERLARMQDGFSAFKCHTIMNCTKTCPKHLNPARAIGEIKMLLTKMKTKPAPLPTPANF
T3 sequence (P92506 32-188): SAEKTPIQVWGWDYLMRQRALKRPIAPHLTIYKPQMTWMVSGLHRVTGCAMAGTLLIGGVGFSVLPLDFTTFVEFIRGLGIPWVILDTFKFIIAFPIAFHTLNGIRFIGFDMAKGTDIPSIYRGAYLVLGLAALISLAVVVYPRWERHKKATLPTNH
T3 sequence (P92507 26-156): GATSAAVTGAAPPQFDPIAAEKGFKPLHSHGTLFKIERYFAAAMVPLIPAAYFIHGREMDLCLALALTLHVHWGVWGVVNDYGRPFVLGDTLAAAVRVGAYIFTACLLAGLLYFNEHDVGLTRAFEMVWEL
Chain of A. simplex complex II (A0A0M3JRB2 24-279): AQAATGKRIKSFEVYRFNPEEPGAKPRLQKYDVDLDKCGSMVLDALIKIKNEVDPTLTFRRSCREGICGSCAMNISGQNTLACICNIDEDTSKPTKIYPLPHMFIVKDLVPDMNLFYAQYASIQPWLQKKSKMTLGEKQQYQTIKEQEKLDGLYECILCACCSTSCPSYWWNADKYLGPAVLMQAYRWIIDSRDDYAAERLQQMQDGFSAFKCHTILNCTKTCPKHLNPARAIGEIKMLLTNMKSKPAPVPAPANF
Chain of A. simplex complex II (A0A3P6RGD8 1-99): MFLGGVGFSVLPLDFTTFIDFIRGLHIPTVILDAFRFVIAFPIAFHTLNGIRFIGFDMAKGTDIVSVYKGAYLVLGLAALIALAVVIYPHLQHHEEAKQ
Chain of A. simplex complex II (A0A0M3KB13 31-157): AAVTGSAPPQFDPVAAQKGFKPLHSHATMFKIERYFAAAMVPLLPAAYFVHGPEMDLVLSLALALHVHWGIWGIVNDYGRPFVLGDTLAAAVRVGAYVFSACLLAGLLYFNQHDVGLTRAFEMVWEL
Chain of A. simplex complex II (A0A0M3KCD2 1-354 partner): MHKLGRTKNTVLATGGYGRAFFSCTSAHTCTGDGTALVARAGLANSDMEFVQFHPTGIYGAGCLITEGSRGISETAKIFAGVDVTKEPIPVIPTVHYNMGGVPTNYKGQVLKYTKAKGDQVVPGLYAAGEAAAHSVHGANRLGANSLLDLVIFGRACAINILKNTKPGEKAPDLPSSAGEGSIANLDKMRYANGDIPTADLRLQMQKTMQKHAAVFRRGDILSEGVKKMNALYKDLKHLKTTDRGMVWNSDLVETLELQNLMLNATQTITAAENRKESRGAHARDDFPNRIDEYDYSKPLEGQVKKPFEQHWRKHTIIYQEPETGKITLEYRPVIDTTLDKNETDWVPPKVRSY
T1 sequence (Q0QF01 43-664 partner): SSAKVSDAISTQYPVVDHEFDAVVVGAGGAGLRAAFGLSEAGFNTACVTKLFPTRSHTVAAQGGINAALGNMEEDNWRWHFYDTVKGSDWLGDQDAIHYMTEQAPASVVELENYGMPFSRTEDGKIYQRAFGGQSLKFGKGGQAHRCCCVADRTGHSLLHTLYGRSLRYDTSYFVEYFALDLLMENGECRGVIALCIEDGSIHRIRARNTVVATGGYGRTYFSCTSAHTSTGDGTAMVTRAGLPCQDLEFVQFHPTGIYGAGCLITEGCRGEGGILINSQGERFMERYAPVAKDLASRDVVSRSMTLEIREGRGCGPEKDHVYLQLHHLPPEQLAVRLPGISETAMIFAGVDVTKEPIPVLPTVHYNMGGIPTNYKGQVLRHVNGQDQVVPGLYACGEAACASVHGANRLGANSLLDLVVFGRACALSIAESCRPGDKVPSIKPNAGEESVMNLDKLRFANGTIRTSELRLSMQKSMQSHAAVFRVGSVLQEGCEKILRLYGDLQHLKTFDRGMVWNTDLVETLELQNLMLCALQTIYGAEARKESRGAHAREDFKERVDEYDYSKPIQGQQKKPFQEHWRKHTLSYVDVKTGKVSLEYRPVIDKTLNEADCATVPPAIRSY
T1 sequence (Q007T0 29-280): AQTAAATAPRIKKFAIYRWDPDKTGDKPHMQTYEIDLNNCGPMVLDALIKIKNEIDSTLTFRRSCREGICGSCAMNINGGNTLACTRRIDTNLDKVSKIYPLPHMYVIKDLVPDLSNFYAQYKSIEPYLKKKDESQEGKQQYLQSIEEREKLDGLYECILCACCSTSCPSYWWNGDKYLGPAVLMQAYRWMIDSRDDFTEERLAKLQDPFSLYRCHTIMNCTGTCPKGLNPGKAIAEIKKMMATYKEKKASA
T1 sequence (D0VWV4 30-169): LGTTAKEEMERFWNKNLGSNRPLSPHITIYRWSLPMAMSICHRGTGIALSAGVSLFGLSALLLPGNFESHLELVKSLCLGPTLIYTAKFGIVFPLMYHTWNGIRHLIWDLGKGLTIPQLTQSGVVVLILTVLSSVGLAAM
T1 sequence (A5GZW8 57-159 limits assumed): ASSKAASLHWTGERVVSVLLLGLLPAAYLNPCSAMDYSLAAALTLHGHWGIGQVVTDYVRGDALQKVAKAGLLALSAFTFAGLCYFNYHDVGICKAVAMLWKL
Chain of Ascaris suum complex II (O44074 22-282): as the sequence (O44074 22-282) above
Chain of Ascaris suum complex II (P92506 32-188): as the sequence (P92506 32-188) above
Chain of Ascaris suum complex II (P92507 26-156): as the sequence (P92507 26-156) above
Chain of Ascaris suum complex II (Q33862 19-645, further chain): as the sequence (Q33862 19-645 partner) above

For Cc1cc(O)c2c(c1)O[C@@]1(C)CC[C@H]3C(C)(C)CCC[C@]34CO[C@@H]2[C@H]41 [siccanin], the IC50 (pig complex II [1]) is given as 861 µM, the MIC [2] is given as 0.6 to 6.3 µg/mL and the IC50 [3] is given as 8.3 µM. For the same compound, the “Motility (%)” value (D. immitis microfilariae; 5 μM, 0 hr) was 100%, the “Motility (%)” value (D. immitis microfilariae; 5 μM, 24 hr) was 75% and the “Motility (%)” value (D. immitis microfilariae; 5 μM, 48 hr) was 50%. The “Motility (%)” value (D. immitis microfilariae; 50 μM, 0 hr) was 25%, the “Motility (%)” value (D. immitis microfilariae; 50 μM, 24 hr) was 0% and the “Motility (%)” value (D. immitis microfilariae; 50 μM, 48 hr) was 0%. For the same compound, the IC50 [4] was 268 µM, the “inhibition of NADH- or ascorbate-dependant oxygen consumption” value [5] was “does not inhibit” and the Selectivity (T. b. brucei complex II) was 3189 fold. For the same compound, the IC50 (T. b. brucei complex II; read-out: SQR IC50) was 370 nM, the “inhibition of SDH activity” value [6] was “no inhibitory effects” and the IC50 (P. falciparum complex II) was 98 nM. The Selectivity (P. falciparum complex II) was 8675, the “inhibition of SDH activity” value [7] was “no inhibitory effects” and the IC50 [8] was 87 nM. For the same compound, the IC50 (L. major promastigote [9]) was 13 µM, the IC50 ([10]; Pseudomonas aeruginosa complex II) was 870 nM and the “inhibition mode against quinone” value ([10]; membrane fraction of Pseudomonas aeruginosa) was “mixed inhibition”. The “decrease in the number of the protozoa compared with DMSO control” value (T. cruzi amastigote [11]; 10 μM siccanin) was 50%, the IC50 (T. cruzi amastigote [11]; Trypanosoma cruzi, T. cruzi amastigote in mouse cells, read-out: Celluler IC50) was 10 µM and the IC50 [12] was 4.4 µM. For the same compound, the Selectivity (pig complex II [13]) was 1, the Selectivity (L. tarentolae complex II) was 4532 fold and the IC50 (L. tarentolae complex II; read-out: SQR IC50) was 190 nM. The IC50 ([14]; Plasmodium falciparum) was 15.5 µM, the IC50 [14] was 16 µM and the IC50 (L. donovani promastigote [15]; read-out: Celluler IC50) was 700 nM. For the same compound, the IC50 (L. donovani promastigote [15]; read-out: IC50) was 700 nM, the Ki [16, 22] was 3 nM and 5.2 nM and the Ki [16, 23] was 8.7 nM and 9.9 nM. The “inhibitory pattern for quinone” value [16, 24] was “mixed inhibition”, the “inhibitory pattern for succinate” value [16, 24] was “non-competitive inhibition” and the Selectivity (H. contortus complex II) was 47308 fold. For the same compound, the IC50 (H. contortus complex II; read-out: SQR IC50) was 18.2 nM, the Selectivity (T. cruzi complex II) was 718 fold and the IC50 (T. cruzi complex II; read-out: SQR IC50) was 1200 nM. For the same compound, the “subjects whose skin was completely cured” value (T. mentagrophytes) was 85-100%, the IC50 [17] was 5.7 nM and the Selectivity [17] was 180,000 fold. The “selectivity relative to the selectivity of flutolanil” value [17] was “about 20 fold”, the IC50 (A. simplex complex II) was 11.2 nM and the Selectivity (A. simplex complex II) was 76875 fold. For the same compound, the Ki [18, 22] was 39 nM, the Ki [18, 23] was 102 nM and the “inhibitory pattern for quinone” value ([18]; L. tarentolae complex II, Lineweaver-Burk plot) was “mixed inhibition”. For the same compound, the IC50 (rat complex II) was 9.3 µM, the Selectivity (D. immitis complex II) was 62391 fold and the IC50 (D. immitis complex II; read-out: SQR IC50) was 13.8 nM.
In the case of ivermectin [reference compound], the “Motility (%)” value (D. immitis microfilariae; 5 μM, 0 hr) is reported as 100%, the “Motility (%)” value (D. immitis microfilariae; 5 μM, 24 hr) is reported as 75% and the “Motility (%)” value (D. immitis microfilariae; 5 μM, 48 hr) is reported as 50%. For the same compound, the “Motility (%)” value (D. immitis microfilariae; 50 μM, 0 hr) was 100%, the “Motility (%)” value (D. immitis microfilariae; 50 μM, 24 hr) was 50% and the “Motility (%)” value (D. immitis microfilariae; 50 μM, 48 hr) was 50%.
For CCCCCCCCCCCCCCCCOP(=O)([O-])OCC[N+](C)(C)C [miltefosine], the IC50 (L. donovani promastigote [19]) is listed as roughly 450 nM and the IC50 (L. major promastigote [20]) is listed as roughly 13.1 µM.
For C[C@@H]1[C@H](O)[C@@H](C)/C=C/C=C/C=C/C=C/C=C/C=C/C=C/[C@H](O[C@@H]2O[C@H](C)[C@@H](O)[C@H](N)[C@@H]2O)C[C@@H]2O[C@](O)(C[C@@H](O)C[C@@H](O)[C@H](O)CC[C@@H](O)C[C@@H](O)CC(=O)O[C@H]1C)C[C@H](O)[C@H]2C(=O)O [Amphotericin B], the IC50 (L. donovani promastigote [19]) is given as roughly 12 nM and the IC50 (L. major promastigote [20]) is given as roughly 0.043 µM.
For O=C(Cn1ccnc1[N+](=O)[O-])NCc1ccccc1 [benznidazole], the IC50 (T. cruzi amastigote [21]) is listed as roughly 22 µM.
In the case of CC1CS(=O)(=O)CCN1/N=C/c1ccc([N+](=O)[O-])o1 (stereo not shown) [nifurtimox], the IC50 (T. cruzi amastigote [21]) is listed as roughly 3.5 µM.
For CC(C)Oc1cccc(NC(=O)c2ccccc2C(F)(F)F)c1 [flutolanil], the “selectivity over pig complex II” value (Ascaris suum complex II) is given as 800 fold.
